According to patent US8299048B2, “Hexahydrocyclopentyl[f]indazole sulfonamides and derivatives thereof as selective glucocorticoid receptor modulators” (Merck Sharp & Dohme Corp., priority 2008, dated 2012):
Read-outs that look alike come from different tables or passages of the source.

Target: T1, human GR (Homo sapiens, UniProt P04150)
T1 sequence (P04150 1-777): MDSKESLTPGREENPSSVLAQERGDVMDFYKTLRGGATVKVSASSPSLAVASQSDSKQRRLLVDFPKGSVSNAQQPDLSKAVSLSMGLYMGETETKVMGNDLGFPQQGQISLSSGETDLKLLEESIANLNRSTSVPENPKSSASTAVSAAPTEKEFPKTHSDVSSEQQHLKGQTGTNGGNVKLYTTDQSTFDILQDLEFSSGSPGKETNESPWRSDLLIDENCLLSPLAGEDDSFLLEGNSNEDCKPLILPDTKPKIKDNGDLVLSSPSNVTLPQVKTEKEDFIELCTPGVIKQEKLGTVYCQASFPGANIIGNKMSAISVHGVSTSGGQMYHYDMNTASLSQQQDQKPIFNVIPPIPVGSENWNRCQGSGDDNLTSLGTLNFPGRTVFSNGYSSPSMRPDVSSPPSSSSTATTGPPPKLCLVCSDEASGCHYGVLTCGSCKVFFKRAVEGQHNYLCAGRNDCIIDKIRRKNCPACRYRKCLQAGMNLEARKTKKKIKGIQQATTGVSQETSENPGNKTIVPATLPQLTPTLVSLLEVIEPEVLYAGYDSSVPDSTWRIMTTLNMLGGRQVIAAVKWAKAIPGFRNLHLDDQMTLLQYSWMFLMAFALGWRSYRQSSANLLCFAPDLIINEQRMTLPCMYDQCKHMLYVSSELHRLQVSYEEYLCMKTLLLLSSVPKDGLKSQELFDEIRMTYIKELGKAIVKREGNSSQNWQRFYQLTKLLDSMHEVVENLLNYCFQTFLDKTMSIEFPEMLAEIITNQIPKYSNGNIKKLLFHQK
Test: Transrepression Assay (GITAR), TNFα-β-lactamase reporter in U937 cells
Format: cell-based
Parameters: U937 cells contain an endogenous glucocorticoid receptor (GR); endogenous in cells; host or cells: U937 cells stably transfected with the TNF-alpha promoter/beta-lactamase reporter
Conditions: for GITAR > GRAMM % SEP: GITAR Emax minus GRAMMER Emax; for EC50: U937 cells, inflection point, read-out: Transrepression U937 Cells GITAR IP
In short: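 Repression normalised to 100 nM dexamethasone (100%), measured with CCF2-AM β-lactamase substrate after 70–90 min at room temperature. Stably transfected U937 cells were exposed to compound 30–45 min, then to PMA (5 ng/ml final) plus LPS (100 ng/ml final) overnight (~18 hr), 37° C.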

[1] = U-937, U937 cells, maximum activity, read-out: Transrepression U937 Cells GITAR Emax
[2] = U-937, activity repressed by 100 nM dexamethasone alone set as 100%, read-out: maximal activity in the transrepression (GITAR) assay

C[C@]12Cc3cnn(-c4ccc(F)cc4)c3C=C1CC[C@@H]2CN(CC#N)S(=O)(=O)c1ccc(Oc2cccc(Cl)c2C#N)cc1 [Example 38, 4-(3-chloro-2-cyanophenoxy)-N-(cyanomethyl)-N-{[(4αR,5S)-1-(4-fluorophenyl)-4α-methyl-1,4,4α,5,6,7-hexahydrocyclopenta[f]indazol-5-yl]methyl}benzenesulfonamide]
GITAR > GRAMM % SEP: 32.5% | EC50: 2.34 µM | Emax [1]: 33.8% | Emax [2]: > 5%

C[C@]12Cc3cnn(-c4ccc(F)cc4)c3C=C1CC[C@@H]2CN(CC#N)S(=O)(=O)c1cc(F)c(F)cc1F [Example 47, N-(cyanomethyl)-2,4,5-trifluoro-N-{[(4αR,5S)-1-(4-fluorophenyl)-4α-methyl-1,4,4α,5,6,7-hexahydrocyclopenta[f]indazol-5-yl]methyl}benzenesulfonamide]
GITAR > GRAMM % SEP: 15.7% | EC50: 0.895 µM | Emax [1]: 74% | Emax [2]: > 5%

C[C@]12Cc3cnn(-c4ccc(F)cc4)c3C=C1CC[C@@H]2CN(CC1CC1)S(=O)(=O)c1ccc(F)c(Cl)c1 [Example 15, 3-chloro-N-(cyclopropylmethyl)-4-fluoro-N-{[(4αR,5S)-1-(4-fluorophenyl)-4α-methyl-1,4,4α,5,6,7-hexahydrocyclopenta[f]indazol-5-yl]methyl}benzenesulfonamide]
GITAR > GRAMM % SEP: 31.4% | EC50: 0.258 µM | Emax [1]: 59% | Emax [2]: > 5%

COC(=O)c1ccccc1S(=O)(=O)N(CC1CC1)C[C@H]1CCC2=Cc3c(cnn3-c3ccc(F)cc3)C[C@@]21C [Example 18, methyl 2-[((cyclopropylmethyl){[(4αR,5S)-1-(4-fluorophenyl)-4α-methyl-1,4,4α,5,6,7-hexahydrocyclopenta[f]indazol-5 yl]methyl}amino)sulfonyl]benzoate]
GITAR > GRAMM % SEP: 15.3% | EC50: 0.415 µM | Emax [1]: 35.3% | Emax [2]: > 5%

C[C@]12Cc3cnn(-c4ccc(F)cc4)c3C=C1CC[C@@H]2CN(CCO)S(=O)(=O)c1ccc(F)c(F)c1 [Example 59]
GITAR > GRAMM % SEP: 39.6% | EC50: 0.538 µM | Emax [1]: 80.9% | Emax [2]: > 5%

COC(=O)c1ccccc1S(=O)(=O)N(C[C@H]1CCC2=Cc3c(cnn3-c3ccc(F)cc3)C[C@@]21C)C[C@@H](C)O [Example 186, methyl 2-({{[(4αR,5S)-1-(4-fluorophenyl)-4α-methyl-1,4,4α,5,6,7-hexahydrocyclopenta[f]indazol-5-yl]methyl}[(2R)-2-hydroxypropyl]amino}sulfonyl)benzoate]
GITAR > GRAMM % SEP: 27.7% | EC50: 0.697 µM | Emax [1]: 63.5% | Emax [2]: > 5%

C[C@]12Cc3cnn(-c4ccc(F)cc4)c3C=C1CC[C@@H]2CN(CC#N)S(=O)(=O)c1cc(OCC(F)(F)F)ccc1OCC(F)(F)F [Example 41, N-(cyanomethyl)-N-{[(4αR,5S)-1-(4-fluorophenyl)-4α-methyl-1,4,4α,5,6,7-hexahydrocyclopenta[f]indazol-5-yl]methyl}-2,5-bis(2,2,2-trifluoroethoxy)benzenesulfonamide]
GITAR > GRAMM % SEP: 31.6% | EC50: 0.362 µM | Emax [1]: 91.9% | Emax [2]: > 5%

C[C@]12Cc3cnn(-c4ccc(F)cc4)c3C=C1CC[C@@H]2CN(CCCc1ccccc1)S(=O)(=O)c1ccccc1F [Example 195, 2-fluoro-N-{[(4αR,5S)-1-(4-fluorophenyl)-4α-methyl-1,4,4α,5,6,7-hexahydrocyclopenta[f]indazol-5-yl]methyl}-N-(3-phenylpropyl)benzenesulfonamide]
GITAR > GRAMM % SEP: 17.1% | EC50: 0.486 µM | Emax [1]: 30% | Emax [2]: > 5%

C[C@]12Cc3cnn(-c4ccc(F)cc4)c3C=C1CC[C@@H]2CN(CC1CCCO1)S(=O)(=O)c1ccc(C(N)=O)cc1 (stereo partly drawn) [Example 191, 4-{[{[(4αR,5S)-1-(4-fluorophenyl)-4α-methyl-1,4,4α,5,6,7-hexahydrocyclopenta[f]indazol-5-yl]methyl}(tetrahydrofuran-2-ylmethyl)amino]sulfonyl}benzamide]
GITAR > GRAMM % SEP: 10.1% | EC50: 0.441 µM | Emax [1]: 37.2% | Emax [2]: > 5%

C[C@]12Cc3cnn(-c4ccc(F)cc4)c3C=C1CC[C@@H]2CN(CC#N)S(=O)(=O)c1ccccc1C(F)(F)F [Example 54, N-(cyanomethyl)-N-{[(4αR,5S)-1-(4-fluorophenyl)-4α-methyl-1,4,4α,5,6,7-hexahydrocyclopenta[f]indazol-5-yl]methyl}-2-(trifluoromethyl)benzenesulfonamide]
GITAR > GRAMM % SEP: 23.1% | EC50: 1.1 µM | Emax [1]: 31.3% | Emax [2]: > 5%

C[C@]12Cc3cnn(-c4ccc(F)cc4)c3C=C1CC[C@@H]2CN(CC1CC1)S(=O)(=O)/C=C/c1ccccc1 [Example 13, (E)-N-(cyclopropylmethyl)-N-{[(4αR,5S)-1-(4-fluorophenyl)-4α-methyl-1,4,4α,5,6,7-hexahydrocyclopenta[f]indazol-5-yl]methyl}-2-phenylethylenesulfonamide]
GITAR > GRAMM % SEP: 7.8% | EC50: 0.305 µM | Emax [1]: 16.1% | Emax [2]: > 5%

C[C@]12Cc3cnn(-c4ccc(F)cc4)c3C=C1CC[C@@H]2CNS(=O)(=O)Cc1cccnc1 [Example 169, N-{[(4αR,5S)-1-(4-fluorophenyl)-4α-methyl-1,4,4α,5,6,7-hexahydrocyclopenta[f]indazol-5-yl]methyl}-1-pyridin-3-ylmethanesulfonamide]
GITAR > GRAMM % SEP: 56.1% | EC50: 3.03 µM | Emax [1]: 68.5% | Emax [2]: > 5%

C[C@]12Cc3cnn(-c4ccc(F)cc4)c3C=C1CC[C@@H]2CN(CC#N)S(=O)(=O)c1ccc(F)cc1F [Example 51, N-(cyanomethyl)-2,4-difluoro-N-{[(4αR,5S)-1-(4-fluorophenyl)-4α-methyl-1,4,4α,5,6,7-hexahydrocyclopenta[f]indazol-5-yl]methyl}benzenesulfonamide]
GITAR > GRAMM % SEP: 3.5% | EC50: 0.186 µM | Emax [1]: 86.8% | Emax [2]: > 5%

C[C@]12Cc3cnn(-c4ccc(F)cc4)c3C=C1CC[C@@H]2CN(CC#N)S(=O)(=O)c1cc(Cl)c(Cl)s1 [Example 24, 4,5-dichloro-N-(cyanomethyl)-N-{[(4αR,5S)-1-(4-fluorophenyl)-4α-methyl-1,4,4α,5,6,7-hexahydrocyclopenta[f]indazol-5-yl]methyl}thiophene-2-sulfonamide]
GITAR > GRAMM % SEP: 27.2% | EC50: 0.565 µM | Emax [1]: 37.7% | Emax [2]: > 5%

C[C@]12Cc3cnn(-c4ccc(F)cc4)c3C=C1CC[C@@H]2CN(CC#N)S(=O)(=O)c1ccc(F)c(F)c1 [Example 25, N-(cyanomethyl)-3,4-difluoro-N-{[(4αR,5S)-1-(4-fluorophenyl)-4α-methyl-1,4,4α,5,6,7-hexahydrocyclopenta[f]indazol-5-yl]methyl}benzenesulfonamide]
GITAR > GRAMM % SEP: 13.0% | EC50: 0.222 µM | Emax [1]: 89.4% | Emax [2]: > 5%

C[C@]12Cc3cnn(-c4ccc(F)cc4)c3C=C1CC[C@@H]2CN(CC#N)S(=O)(=O)c1cccc2ccccc12 [Example 40, N-(cyanomethyl)-N-{[(4αR,5S)-1-(4-fluorophenyl)-4α-methyl-1,4,4α,5,6,7-hexahydrocyclopenta[f]indazol-5-yl]methyl}naphthalene-1-sulfonamide]
GITAR > GRAMM % SEP: 16.6% | EC50: 0.0355 µM | Emax [1]: 19.8% | Emax [2]: > 5%

C[C@]12Cc3cnn(-c4ccc(F)cc4)c3C=C1CC[C@@H]2CN(CC#N)S(=O)(=O)c1ccccc1-c1ccccc1 [Example 53, N-(cyanomethyl)-N-{[(4αR,5S)-1-(4-fluorophenyl)-4α-methyl-1,4,4α,5,6,7-hexahydrocyclopenta[f]indazol-5-yl]methyl}biphenyl-2-sulfonamide]
GITAR > GRAMM % SEP: 36.0% | EC50: 0.832 µM | Emax [1]: 54% | Emax [2]: > 5%

C[C@]12Cc3cnn(-c4ccc(F)cc4)c3C=C1CC[C@@H]2CN(CC#N)S(=O)(=O)c1ccccc1C#N [Example 55]
GITAR > GRAMM % SEP: 35.7% | EC50: 0.337 µM | Emax [1]: 83.4% | Emax [2]: > 5%

C[C@]12Cc3cnn(-c4ccc(F)cc4)c3C=C1CC[C@@H]2CN(CC1(O)CC1)S(=O)(=O)c1ccccc1F [Example 200, 2-fluoro-N-{[(4αR,5S)-1-(4-fluorophenyl)-4α-methyl-1,4,4α,5,6,7-hexahydrocyclopenta[f]indazol-5-yl]methyl}-N-[(1-hydroxycyclopropyl)methyl]benzenesulfonamide]
GITAR > GRAMM % SEP: 28.4% | EC50: 0.308 µM | Emax [1]: 85.9% | Emax [2]: > 5%
